Assay results as given in patent US20240285571A1, “METHODS OF TREATING BONE INFECTIONS” (MICROBION CORPORATION, priority 2020, published 2024).
Like-named read-outs stand apart in the source and are kept apart here.

How the values were obtained:
Format in all cases: cell-based
[1] = test system: Acinetobacter baumannii; assay: Broth microdilution MIC (Example 6); conditions: Acinetobacter baumannii
How it was run: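 CLSI broth microdilution in cation-adjusted Mueller Hinton broth, test agents 0.06-64 μg/mL from DMSO stocks, inoculum approx. 5×10^5 CFU/mL. Incubation 35° C for 16–20 hr; MIC taken as lowest concentration inhibiting visible growth.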

[2] = test system: relevant ATCC QC organisms; assay: Broth microdilution MIC, QC (Example 6)
How it was run: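 QC strains were tested per CLSI broth microdilution in cation-adjusted Mueller Hinton broth, with Ca2+ supplemented for daptomycin, at about 5×10^5 CFU/mL. Incubation was at 35° C for 16–20 hr, or 24 hr for vancomycin against S. aureus. The MIC was the lowest concentration inhibiting visible growth.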

[3] = test system: Klebsiella pneumoniae; assay: Broth microdilution MIC (Example 6); conditions: Klebsiella pneumoniae
How it was run: (§1)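 Activity was measured by CLSI broth microdilution using 2-fold serial dilutions and an inoculum of about 5×10^5 CFU/mL. Plates were incubated at 35 °C for 16 to 20 hr. The MIC is the lowest drug concentration that prevented visible growth.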

[4] = test system: Pseudomonas aeruginosa; assay: Broth microdilution MIC (Example 6); conditions: Pseudomonas aeruginosa
How it was run: as §1

[5] = test system: Escherichia coli; assay: Broth microdilution MIC (Example 6); conditions: Escherichia coli
How it was run: as §1

OCC(S)CS.[Bi] (stereo not shown) [MB-2B, bismuth-2,3-dimercaptopropanol]
MIC ([1]; A. baumannii isolate CDC 273, β-lactamase type ESBL/OXA): 32 µg/mL | MIC ([1]; A. baumannii isolate CDC 274, β-lactamase type ESBL/OXA): 32 µg/mL | MIC ([1]; A. baumannii isolate CDC 275, β-lactamase type ESBL/OXA): 32 µg/mL | MIC ([1]; A. baumannii isolate CDC 277, β-lactamase type ESBL/OXA): > 16 µg/mL | MIC ([1]; A. baumannii isolate CDC 284, β-lactamase type ESBL/OXA): > 16 µg/mL | MIC ([1]; A. baumannii isolate CDC 307, β-lactamase type OXA): 32 µg/mL | MIC ([1]; A. baumannii isolate CDC 308, β-lactamase type ESBL/OXA): 32 µg/mL | MIC ([1]; A. baumannii isolate CDC 311, β-lactamase type OXA): 32 µg/mL | MIC ([1]; A. baumannii isolate CDC 312, β-lactamase type OXA): 32 µg/mL | MIC ([1]; A. baumannii isolate CDC 313, β-lactamase type ESBL/OXA): 32 µg/mL | MIC ([1]; NCTC13304, A. baumannii isolate NCTC 13304, β-lactamase type OXA): > 16 µg/mL | MIC ([2]; Escherichia coli, ATCC25922): 2 µg/mL | MIC ([2]; Escherichia coli, ATCC35218): 2 µg/mL | MIC ([2]; Klebsiella pneumoniae, ATCCBAA1705): 4 µg/mL | MIC ([2]; Pseudomonas aeruginosa, ATCC27853): 2 µg/mL | MIC ([2]; Staphylococcus aureus, ATCC29213): 1 µg/mL | MIC ([3]; ATCCBAA1705, K. pneumoniae ATCC BAA-1705, ESBL/KPC): 4 µg/mL | MIC ([3]; K. pneumoniae CDC 112, KPC): 4 µg/mL | MIC ([3]; K. pneumoniae CDC 113, ESBL/KPC): 32 µg/mL | MIC ([3]; K. pneumoniae CDC 115, ESBL/KPC): 16 µg/mL | MIC ([3]; K. pneumoniae CDC 120, ESBL/KPC): 4 µg/mL | MIC ([3]; K. pneumoniae CDC 126, ESBL/KPC): 32 µg/mL | MIC ([3]; K. pneumoniae CDC 129, ESBL/KPC): 4 µg/mL | MIC ([3]; K. pneumoniae CDC 135, ESBL/VIM, read-out: MIC): 8 µg/mL | MIC ([3]; K. pneumoniae CDC 138, ESBL/NDM): 16 µg/mL | MIC ([3]; K. pneumoniae CDC 158, ESBL/NDM/OXA): 4 µg/mL | MIC ([3]; K. pneumoniae MMX 9029, ESBL, read-out: MIC): 2 µg/mL | MIC ([4]; P. aeruginosa isolate CDC 230, β-lactamase type VIM/OXA, read-out: MIC): 4 µg/mL | MIC ([4]; P. aeruginosa isolate CDC 231, β-lactamase type KPC/OXA): 16 µg/mL | MIC ([4]; P. aeruginosa isolate CDC 241, β-lactamase type IMP/OXA, read-out: MIC): 32 µg/mL | MIC ([4]; P. aeruginosa isolate CDC 246, β-lactamase type NDM/OXA): 8 µg/mL | MIC ([4]; P. aeruginosa isolate CDC 250, β-lactamase type NDM/OXA): 8 µg/mL | MIC ([4]; P. aeruginosa isolate CDC 356, β-lactamase type KPC): 4 µg/mL | MIC ([4]; P. aeruginosa isolate CDC 439, β-lactamase type IMP, read-out: MIC): 4 µg/mL | MIC ([4]; P. aeruginosa isolate CDC 444, β-lactamase type VIM, read-out: MIC): 4 µg/mL | MIC ([4]; P. aeruginosa isolate CDC 457, β-lactamase type VIM, read-out: MIC): 32 µg/mL | MIC ([4]; P. aeruginosa isolate CDC 516, β-lactamase type KPC/AmpC): 4 µg/mL | MIC ([4]; P. aeruginosa isolate CDC 518, β-lactamase type KPC/AmpC): 4 µg/mL | MIC ([5]; ATCC35218, E. coli ATCC 35218, ESBL, read-out: MIC): 2 µg/mL | MIC ([5]; ATCCBAA2471, E. coli ATCC BAA-2471, NDM): 2 µg/mL | MIC ([5]; E. coli CDC 114, ESBL/KPC): 2 µg/mL | MIC ([5]; E. coli CDC 118, ESBL/NDM): 4 µg/mL | MIC ([5]; E. coli CDC 435, NDM): 2 µg/mL | MIC ([5]; E. coli CDC 451, KPC): 2 µg/mL | MIC ([5]; E. coli CDC 503, ESBL/NDM): 2 µg/mL | MIC ([5]; E. coli MMX 5745, KPC): 4 µg/mL | MIC ([5]; E. coli MMX 5755, ESBL, read-out: MIC): 4 µg/mL | MIC ([5]; E. coli MMX 5756, ESBL, read-out: MIC): 2 µg/mL | MIC ([5]; E. coli MMX 5758, ESBL, read-out: MIC): 4 µg/mL
